According to ChEMBL document CHEMBL1201862, “PubChem BioAssay data set” (2004):
Values joined by “and” are separate entries in the source; they are usually repeats but may differ in a detail not shown here. Equal values may be shown once.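 96-well plates; 48 h exposure; 5 concentrations. Endpoints by linear interpolation between flanking doses. Not reached: highest tested concentration assigned. Abbreviation: GI50, concentration required for 50% inhibition of growth.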 Active and inactive are the calls of the source. Cut-off read from the data, not from the text of the source: active = GI50 up to about 1.1 µM and inactive = higher.

Legend:
Assay in all cases: NCI-60 cell line screen, 48 h
SN12C = system: SN12C
KM12 = system: KM12
UO-31 = system: UO-31
786-0 = system: 786-0
HCT-15 = system: HCT-15
HCC 2998 = system: HCC 2998
SF-539 = system: SF-539
SW-620 = system: SW-620
HT-29 = system: HT-29
EKVX = system: EKVX
SK-MEL-28 = system: SK-MEL-28
UACC-257 = system: UACC-257
HL-60 = system: HL-60
SF-268 = system: SF-268
RXF 393 = system: RXF 393
A498 = system: A498
ACHN = system: ACHN
MDA-MB-231 = system: MDA-MB-231
NCI-H522 = system: NCI-H522

Compound | GI50 (SN12C) | GI50 (KM12) | GI50 (UO-31) | GI50 (786-0) | GI50 (HCT-15) [µM] | GI50 (HCC 2998) | GI50 (SF-539) | GI50 (SW-620) | GI50 (HT-29) | GI50 (EKVX) | GI50 (SK-MEL-28) | GI50 (UACC-257) | GI50 (HL-60) | GI50 (SF-268) | GI50 (RXF 393) | GI50 (A498) | GI50 (ACHN) | GI50 (MDA-MB-231) | GI50 (NCI-H522)
CCCCCC(CN1CCOCC1)C(=O)/C=C/c1ccccc1 (configuration not stated) | 2.94 µM (inactive) | 1.76 µM (inactive) | 6.61 µM (inactive) | 1.76 µM (inactive) | 2.03 | 2 µM (inactive) | 2.07 µM (inactive) | 1.74 µM (inactive) | 2.67 µM (inactive) | 10.4 µM (inactive) | 5.82 µM (inactive) | 2.96 µM (inactive) | 1.85 µM (inactive) | 1.94 µM (inactive) | 1.82 µM (inactive) |  |  |  | 
Cc1ccccc1C1OC1C(=O)c1ccccc1N (configuration not stated) | 78.7 µM (inactive) | 39.7 µM (inactive) | 78.7 µM (inactive) | 59.4 µM (inactive) | 53.3 | > 100 µM (inactive) | 29.9 µM (inactive) | 80.4 µM (inactive) | 45.3 µM (inactive) |  | > 100 µM (inactive) | 74.3 µM (inactive) |  | > 100 µM (inactive) | 90.4 µM (inactive) | > 100 µM (inactive) | > 100 µM (inactive) | 31.6 µM (inactive) | 
Cc1ccccc1N/C(N)=N/C#N | > 100 µM (inactive) |  | > 100 µM (inactive) | > 100 µM (inactive) | > 100 | > 100 µM (inactive) | > 100 µM (inactive) | > 100 µM (inactive) | > 100 µM (inactive) | > 100 µM (inactive) | > 100 µM (inactive) | > 100 µM (inactive) | > 100 µM (inactive) | > 100 µM (inactive) | > 100 µM (inactive) |  | > 100 µM (inactive) | > 100 µM (inactive) | 
COc1ccc2nc3cc(Cl)ccc3c(NCCCNCc3cc(OC)c(OC)c(OC)c3)c2c1 | 1.53 µM (inactive) | 1.64 µM (inactive) | 1.65 µM (inactive) | 1.4 µM (inactive) | 1.54 | 1.75 µM (inactive) | 1.87 µM (inactive) | 0.733 µM (active) | 1.01 µM (active) | 1.47 µM (inactive) | 1.67 µM (inactive) | 1.94 µM (inactive) | 0.895 µM (active) | 1.67 µM (inactive) | 1.46 µM (inactive) |  | 1.62 µM (inactive) | 1.98 µM (inactive) | 1.5 µM (inactive)
Cc1ccccc1N(C)S(=O)(=O)c1ccccc1[N+](=O)[O-] | > 100 µM (inactive) | 55.7 µM (inactive) | 34.3 µM (inactive) | 87.3 µM (inactive) | 57.9 | 51.3 µM (inactive) | 36.5 µM (inactive) | 84.1 µM (inactive) | 32.2 µM (inactive) | 32.2 µM (inactive) | 54.1 µM (inactive) | 57 µM (inactive) | 27.9 µM (inactive) | 40.7 µM (inactive) | 21.3 µM (inactive) |  | 81.8 µM (inactive) | 22.3 µM (inactive) | 36.1 µM (inactive)
Nc1c2ccccc2nc2ccc(C(=O)Nc3ccc(S(N)(=O)=O)cc3)cc12 | > 100 µM (inactive) | > 100 µM (inactive) | > 100 µM (inactive) | > 100 µM (inactive) | > 100 | > 100 µM (inactive) | > 100 µM (inactive) | > 100 µM (inactive) | > 100 µM (inactive) | > 100 µM (inactive) | > 100 µM (inactive) | > 100 µM (inactive) | > 100 µM (inactive) | > 100 µM (inactive) | > 100 µM (inactive) |  | > 100 µM (inactive) | > 100 µM (inactive) | > 100 µM (inactive)
O=C(O)CCC1(CCC(=O)O)CCCCCCCCC(CCC(=O)O)(CCC(=O)O)C(=O)C1=O | > 100 µM (inactive) | > 100 µM (inactive) |  | > 100 µM (inactive) | > 100 | > 100 µM (inactive) | > 100 µM (inactive) | > 100 µM (inactive) | > 100 µM (inactive) | > 100 µM (inactive) | > 100 µM (inactive) | > 100 µM (inactive) | > 100 µM (inactive) | > 100 µM (inactive) |  |  | > 100 µM (inactive) |  | > 100 µM (inactive)
C[N+]1([O-])CCC(O)(C2CC2)CC1 (configuration not stated) | > 100 µM (inactive) | > 100 µM (inactive) | > 100 µM (inactive) | > 100 µM (inactive) | > 100 | > 100 µM (inactive) |  | > 100 µM (inactive) | > 100 µM (inactive) | > 100 µM (inactive) | 0.0399 µM (active) | > 100 µM (inactive) | > 100 µM (inactive) | > 100 µM (inactive) | > 100 µM (inactive) |  | > 100 µM (inactive) | > 100 µM (inactive) | 
O=C1Nc2cccc(Cl)c2/C1=C\c1cccnc1 | 7.82 µM (inactive) | 5.96 µM (inactive) | 5.16 µM (inactive) | 7.43 µM (inactive) | 6.62 | 2.15 µM (inactive) | 12.4 µM (inactive) | 9.57 µM (inactive) | 5.92 µM (inactive) | 17.6 µM (inactive) | 16.4 µM (inactive) | 5.06 µM (inactive) | 3.72 µM (inactive) | 7.24 µM (inactive) | 2.83 µM (inactive) | 21 µM (inactive) | 10.8 µM (inactive) |  | 9.66 µM (inactive)
CCOC(=O)CC(c1ccccc1)C(C)(C(=O)OCC)C(=O)OCC (configuration not stated) | > 100 µM (inactive) | > 100 µM (inactive) | 33.3 µM (inactive) | > 100 µM (inactive) | > 100 | > 100 µM (inactive) | > 100 µM (inactive) | > 100 µM (inactive) | > 100 µM (inactive) | > 100 µM (inactive) | > 100 µM (inactive) | > 100 µM (inactive) | > 100 µM (inactive) | > 100 µM (inactive) | 3.23 µM (inactive) |  | > 100 µM (inactive) | > 100 µM (inactive) | > 100 µM (inactive)
COc1cc2oc(=O)cc(C)c2c(OC)c1OC(C)=O | > 100 µM (inactive) | > 100 µM (inactive) | > 100 µM (inactive) | > 100 µM (inactive) | > 100 |  |  | > 100 µM (inactive) | > 100 µM (inactive) | > 100 µM (inactive) | > 100 µM (inactive) | > 100 µM (inactive) |  | > 100 µM (inactive) |  | > 100 µM (inactive) | > 100 µM (inactive) | > 100 µM (inactive) | 
CC1=C2CC(C)(C)CC(=O)C2(C)CCC1=O (configuration not stated) | > 100 µM (inactive) | > 100 µM (inactive) | > 100 µM (inactive) | > 100 µM (inactive) | > 100 | > 100 µM (inactive) | > 100 µM (inactive) | > 100 µM (inactive) | > 100 µM (inactive) | > 100 µM (inactive) | > 100 µM (inactive) | > 100 µM (inactive) | > 100 µM (inactive) | > 100 µM (inactive) |  |  | > 100 µM (inactive) | > 100 µM (inactive) | > 100 µM (inactive)
COc1ccc(C2Oc3c(OC)cc(CCCO)cc3C2CO)cc1OC (configuration not stated) | > 100 µM (inactive) | > 100 µM (inactive) and 79.3 µM (inactive) |  | > 100 µM (inactive) | > 100 | > 100 µM (inactive) | > 100 µM (inactive) | > 100 µM (inactive) | > 100 µM (inactive) | 61.4 µM (inactive) and 39.9 µM (inactive) | 74 µM (inactive) |  | 43.8 µM (inactive) and 65.3 µM (inactive) | > 100 µM (inactive) | > 100 µM (inactive) |  | > 100 µM (inactive) and 76.6 µM (inactive) | 99.3 µM (inactive) | 86.7 µM (inactive)
CN(CCN1C(=O)c2cccc3cccc(c23)C1=O)CCN1C(=O)c2cccc3cccc(c23)C1=O | 76 µM (inactive) | > 100 µM (inactive) | 5.81 µM (inactive) | 9.02 µM (inactive) | 0.178 |  | 32.7 µM (inactive) |  | > 100 µM (inactive) | > 100 µM (inactive) | > 100 µM (inactive) | 60.1 µM (inactive) | 68.7 µM (inactive) | 27.7 µM (inactive) | 23.3 µM (inactive) |  | 7.69 µM (inactive) | 13.7 µM (inactive) | 13.2 µM (inactive)
CCN(CC)CCCNC(=O)c1cc2cc(NC(=O)c3cc4cc([N+](=O)[O-])ccc4[nH]3)ccc2[nH]1 | > 100 µM (inactive) | 7.21 µM (inactive) | > 100 µM (inactive) | 40.8 µM (inactive) | > 100 | > 100 µM (inactive) | 48.5 µM (inactive) | 68.2 µM (inactive) | 35 µM (inactive) | > 100 µM (inactive) | 30.3 µM (inactive) | 29.9 µM (inactive) |  | > 100 µM (inactive) | > 100 µM (inactive) | 27.4 µM (inactive) | > 100 µM (inactive) | 54 µM (inactive) | 
N#CC1Nc2ccccc2[C@@H](O)C1O (some centres not stated) | > 100 µM (inactive) | > 100 µM (inactive) |  | > 100 µM (inactive) | > 100 | > 100 µM (inactive) | > 100 µM (inactive) | > 100 µM (inactive) | > 100 µM (inactive) | > 100 µM (inactive) | > 100 µM (inactive) | > 100 µM (inactive) | > 100 µM (inactive) | > 100 µM (inactive) | > 100 µM (inactive) |  | > 100 µM (inactive) | > 100 µM (inactive) | 
NS(=O)(=O)c1ccc(NC(NC(=O)C(C(F)(F)F)C(F)(F)F)(C(F)(F)F)C(F)(F)F)cc1 | > 100 µM (inactive) | > 100 µM (inactive) | > 100 µM (inactive) | > 100 µM (inactive) | > 100 | > 100 µM (inactive) | > 100 µM (inactive) | > 100 µM (inactive) | > 100 µM (inactive) | > 100 µM (inactive) | > 100 µM (inactive) | > 100 µM (inactive) | > 100 µM (inactive) | > 100 µM (inactive) | > 100 µM (inactive) |  | > 100 µM (inactive) | > 100 µM (inactive) | > 100 µM (inactive)
